Reference: US6117840A, “CS-1 peptidomimetics, compositions and methods of using the same” (Cytel Corporation, priority 1997, dated 2000)
Square brackets hold non-standard residues; d marks the D form. Peptide text beside a SMILES is read from it. * marks the point of attachment. PhAc = O=C(Cc1ccccc1)*

Columns and labels:
[1] = system: asthmatic sheep; test: Treatment of asthmatic sheep (Ascaris suum antigen); assay type: in vivo; conditions: for PC400, carbacol dosage to increase SRL 4-fold, 24 hours after challenge: pre-challenge values about 20-23 BU
Method: Six asthmatic sheep were treated in a double blind cross-over study by Dr. William M. Abraham of the Department of Research, Mount Sinai Medical Center, 4300 Alton Road, Miami Beach, Fla. 33140. […] This study was carried out generally as described in Abraham et al., J. Clin. Invest., 93:776-787 (1994).
The inhibitor peptide used here was N--phenylacetyl--Leu--Asp--Phe--D--Pro--NH2, with a control peptide that comprised the previously described peptide having the same residues in a scrambled sequence. The vehicle for the nebulized peptides was phosphate-buffered saline. The peptides were administered at a dose of 1 mg/kg each, twice a day for three days prior to challenge, as well as 0.5 hours prior to and four hours post challenge on day 4. Because this was a crossover study, each animal received one or the other treatment, followed by a rest and then the other treatment. Each animal therefore served as its own control.

[2] = system: BALB/c mice; test: Adoptive transfer delayed type hypersensitivity in mice (oxazolone); assay type: in vivo, mouse; conditions: for swelling at challenge site (in words): 6 mg/kg/day s.c. pump for 24 hours
Method: An adoptive transfer delayedtype hypersensitivity murine model has been developed using splenic T cells primed to oxazolone. This model is described in Elices et al., Clin. Exp. Rheum., 11(Suppl. 8):577-580 (1993), whose procedures were followed here.
Thus, BALB/c mice were shaved on the belly and painted (50 μl on the belly and 5 μl on each paw) with three percent oxazolone in acetone/olive oil (4:1) at days zero and 1. At day 5, the mice were sacrificed, their spleens removed, and splenic T cells were obtained via nylon wool columns.
Normal saline or saline containing 25×10^6 /animal of the oxazoloneimmune T cells were separately injected into naive mice. The mic were then challenged by painting 10 μl of 2 percent oxazolone onto one ear each. All procedures were carried out under sterile conditions and in endotoxingfree buffers.
Prior to challenge or saline injection, the mice were implanted with pumps that subcutaneously administered normal saline, normal saline containing the peptide N--phenylacetyl--Leu--Asp--Phe--D--Pro--NH2 or normal saline containing a peptide with a scrambled sequence continually at 6 mg/kg/day for a 24-hour time period. The swelling diameter at the site of challenge or saline injection was measured with a microcaliper 24 hours thereafter.
An expanded study was carried out as described above except that a scrambled peptide control was not used using further inhibitor peptides o Table 1 with larger groups of mice. Statistical analyses were carried out versus injection of vehicle alone. Those results are shown below in Table 2.

[3] = system: SJL/J mice; test: Experimental autoimmune encephalomyelitis in mice; assay type: in vivo; conditions: 1 mg/mouse i.p. at days 8 and 9; versus scrambled control peptide
Method: EAE was induced in female SJL/J mice (8 to 14 weeks old) by immunization on day zero with 50 μg of a peptide corresponding to positions 139-151 of PLP emulsified in a 1:1 mixture of PBS and complete Freund's adjuvant (CFA). Each mouse was injected with 0.2 ml of the adjuvant emulsion subcutaneously (s.c.) at two sites in the hind flank. All mice received 10^7 killed Bordetella pertussis units in 100 μl were injected intravenously 24 to 72 hours later.
Mice were observed daily, beginning at day 8 for clinical signs of EAE, and disease was scored on a scale of 0-5 as: 0=no disease; 1=floppy tail; 2=moderate hind limb weakness; 3=paraparesis; 4=paraplegis with moderate forelimb weakness; 5=qualdriplegis or premoribund state.
The inhibitor peptide N--phenylacetyl--Leu--Asp--Phe--D--Pro--NH2 was administered intraperitoneally at 1 mg/mouse in 0.2 ml of incomplete Freund's adjuvant at days 8 and 9. A peptide having a scrambled sequence [N--phenylacetyl--Asp--Leu--Phe--D--Pro--NH2 ] was similarly administered to serve as a control.
Summed or averaged scores for clinical signs were plotted vs. time. The area under the resulting curves was calculated between day 8 and day 35 to calculate percentage inhibition of EAE by an inhibitor peptide. The percent inhibition was calculated as follows: [formula]

| SMILES | PC400, carbacol dosage to increase SRL 4-fold, 24 hours after challenge [1] | swelling at challenge site (in words) [2] | clinical signs of EAE [3] | change in specific lung resistance (SRL) after challenge (FIG. 7) ([1]; 1 mg/kg nebulized twice a day, versus control peptide) | Percent Inhibition ([2]; expanded study, 6 mg/kg/day, versus vehicle) [%] |
| --- | --- | --- | --- | --- | --- |
| CC(C)C[C@H](NC(=O)[C@H](CC(=O)O)NC(=O)Cc1ccccc1)C(=O)N[C@@H](Cc1ccccc1)C(=O)N1CCC[C@@H]1C(N)=O [X L D F p phenylacetyl amide scrambled, N--phenylacetyl--Asp--Leu--Phe--D--Pro--NH2, reference compound] (PhAc-DLF[dP]-NH2) | about 12 BU | no reduction of inflammation |  |  |  |
| CC(C)C[C@H](NC(=O)Cc1ccccc1)C(=O)N[C@@H](CC(=O)O)C(=O)N[C@@H](Cc1ccccc1)C(=O)N1CCC[C@@H]1C(N)=O [X L D F p phenylacetyl amide, N--phenylacetyl--Leu--Asp--Phe--D--Pro--NH2] (PhAc-LDF[dP]-NH2) | about 27 BU | reduced thi type of CS1/VLA-4-mediated immunoinflammation | marked improvement in clinical signs | less of a change from baseline specific lung resistance | 36 |
